Biological target: hQC (Homo sapiens, UniProt Q16769)
Assay: Inhibitor assay for glutaminyl cyclase activity (fluorometric, H-Gln-βNA / H-Gln-AMC)
Assay type: biochemical
Settings: read-out: IC50
How it was run: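 Ki values came from fitting progress curves to a competitive inhibition model; rapid screens used 4 mM inhibitor with substrate at KM. QC activity was read at 30 °C via auxiliary pyroglutamyl aminopeptidase releasing βNA (0.2 mM H-Gln-βNA, 0.2 M Tris pH 8.0, 20 mM EDTA) or AMC (0.05 M Tris pH 8.0, 5 mM EDTA).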

Sequence of hQC (Q16769 29-361): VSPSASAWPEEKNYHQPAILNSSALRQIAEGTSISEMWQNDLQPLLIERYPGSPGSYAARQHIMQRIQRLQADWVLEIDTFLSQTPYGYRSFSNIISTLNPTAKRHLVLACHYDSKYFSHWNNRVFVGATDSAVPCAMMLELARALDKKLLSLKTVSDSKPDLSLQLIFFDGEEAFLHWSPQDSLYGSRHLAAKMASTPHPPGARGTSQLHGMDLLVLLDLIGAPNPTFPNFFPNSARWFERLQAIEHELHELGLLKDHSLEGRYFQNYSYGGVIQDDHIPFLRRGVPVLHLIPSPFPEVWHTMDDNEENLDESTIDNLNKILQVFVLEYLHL

Row | SMILES | IC50 [nM]
1 | O=C1C(O)=C(c2ccc(O)cc2)C(c2coc3ccccc3c2=O)N1c1ccc2[nH]cnc2c1 (stereo not shown) [Compound 286, 1-(1H-Benzoimidazol-5-yl)-3-hydroxy-4-(4-hydroxy-phenyl)-5-(4-oxo-4H-chromen-3-yl)-1,5-dihydro-pyrrol-2-one] | 3550
2 | CCC1=C(O)C(=O)N(c2ccc3[nH]cnc3c2)C1c1cc(Br)c(O)c(Br)c1 (stereo not shown) [Compound 288, 1-(1H-Benzoimidazol-5-yl)-5-(3,5-dibromo-4-hydroxy-phenyl)-4-ethyl-3-hydroxy-1,5-dihydro-pyrrol-2-one] | 2290
3 | Cc1ccc(C2C(C(=O)CC(C)C)=C(O)C(=O)N2c2ccc3[nH]cnc3c2)o1 (stereo not shown) [Compound 289, 1-(1H-Benzoimidazol-5-yl)-3-hydroxy-4-(3-methyl-butyryl)-5-(5-methyl-furan-2-yl)-1,5-dihydro-pyrrol-2-one] | 760
4 | CCC1=C(O)C(=O)N(c2ccc3[nH]cnc3c2)C1c1c(F)ccc(Cl)c1F (stereo not shown) [Compound 290, 1-(1H-Benzoimidazol-5-yl)-5-(3-chloro-2,6-difluoro-phenyl)-4-ethyl-3-hydroxy-1,5-dihydro-pyrrol-2-one] | 3820
5 | CC(C)CC(=O)C1=C(O)C(=O)N(c2ccc3[nH]cnc3c2)C1C1CCOC1 (stereo not shown) [Compound 291, 1-(1H-Benzoimidazol-5-yl)-3-hydroxy-4-(3-methyl-butyryl)-5-(tetrahydro-furan-3-yl)-1,5-dihydro-pyrrol-2-one] | 490
6 | CCCC1=C(O)C(=O)N(c2ccc3[nH]cnc3c2)C1c1ccc(C(=O)O)o1 (stereo not shown) [Compound 292, 5-[1-(1H-Benzoimidazol-5-yl)-4-hydroxy-5-oxo-3-propyl-2,5-dihydro-1H-pyrrol-2-yl]-furan-2-carboxylic acid] | 9940
7 | O=C(C1=C(O)C(=O)N(c2ccc3[nH]cnc3c2)C1c1ccnc2ccccc12)C1CCCCC1 (stereo not shown) [Compound 293, 1-(1H-Benzoimidazol-5-yl)-4-cyclohexanecarbonyl-3-hydroxy-5-quinolin-4-yl-1,5-dihydro-pyrrol-2-one] | 220
8 | O=C1C(O)=C(c2cccc(O)c2)C(c2ccc(O)c(Br)c2)N1c1ccc2[nH]cnc2c1 (stereo not shown) [Compound 294, 1-(1H-Benzoimidazol-5-yl)-5-(3-bromo-4-hydroxy-phenyl)-3-hydroxy-4-(3-hydroxy-phenyl)-1,5-dihydro-pyrrol-2-one] | 5710
9 | CC(=O)C1=C(O)C(=O)N(c2ccc3[nH]cnc3c2)C1C1COC(C)(C)O1 (stereo not shown) [Compound 295, 4-Acetyl-1-(1H-benzoimidazol-5-yl)-5-(2,2-dimethyl-[1,3]dioxolan-4-yl)-3-hydroxy-1,5-dihydro-pyrrol-2-one] | 9850
10 | O=C(C1=C(O)C(=O)N(c2ccc3[nH]cnc3c2)C1c1ccnc2ccccc12)C1CC1 (stereo not shown) [Compound 296, 1-(1H-Benzoimidazol-5-yl)-4-cyclopropanecarbonyl-3-hydroxy-5-quinolin-4-yl-1,5-dihydro-pyrrol-2-one] | 3000
11 | O=C(O)CC1=C(O)C(=O)N(c2ccc3[nH]cnc3c2)C1c1ccnc2ccccc12 (stereo not shown) [Compound 297, [1-(1H-Benzoimidazol-5-yl)-4-hydroxy-5-oxo-2-quinolin-4-yl-2,5-dihydro-1H-pyrrol-3-yl]-acetic acid] | 2380
12 | Cc1[nH]c2ccccc2c1C1C(C(=O)C2CC2)=C(O)C(=O)N1c1ccc2[nH]cnc2c1 (stereo not shown) [Compound 298, 1-(1H-Benzoimidazol-5-yl)-4-cyclopropanecarbonyl-3-hydroxy-5-(2-methyl-1H-indol-3-yl)-1,5-dihydro-pyrrol-2-one] | 7870
13 | CSCC1=C(O)C(=O)N(c2ccc3[nH]cnc3c2)C1c1cccc(F)c1 (stereo not shown) [Compound 299, 1-(1H-Benzoimidazol-5-yl)-5-(3-fluoro-phenyl)-3-hydroxy-4-methylsulfanylmethyl-1,5-dihydro-pyrrol-2-one] | 5260
14 | CC(C)C1=C(O)C(=O)N(c2ccc3[nH]cnc3c2)C1C1COC(C)(C)O1 (stereo not shown) [Compound 300, 1-(1H-Benzoimidazol-5-yl)-5-(2,2-dimethyl-[1,3]dioxolan-4-yl)-3-hydroxy-4-isopropyl-1,5-dihydro-pyrrol-2-one] | 4
15 | CC(=O)C1=C(O)C(=O)N(c2ccc3[nH]cnc3c2)C1c1cccc(Cl)c1 (stereo not shown) [Compound 301, 4-Acetyl-1-(1H-benzoimidazol-5-yl)-5-(3-chloro-phenyl)-3-hydroxy-1,5-dihydro-pyrrol-2-one] | 130
16 | CCC1=C(O)C(=O)N(c2ccc3[nH]cnc3c2)C1c1ccnc2ccccc12 (stereo not shown) [Compound 302, 1-(1H-Benzoimidazol-5-yl)-4-ethyl-3-hydroxy-5-quinolin-4-yl-1,5-dihydro-pyrrol-2-one] | 2920
17 | O=C(C1=C(O)C(=O)N(c2ccc3[nH]cnc3c2)C1c1ccc(CO)o1)C1CCCCC1 (stereo not shown) [Compound 303, 1-(1H-Benzoimidazol-5-yl)-4-cyclohexanecarbonyl-3-hydroxy-5-(5-hydroxymethyl-furan-2-yl)-1,5-dihydro-pyrrol-2-one] | 400
18 | O=C1C(O)=C(c2cccc(O)c2)C(c2ccc3cccc(O)c3n2)N1c1ccc2[nH]cnc2c1 (stereo not shown) [Compound 304, 1-(1H-Benzoimidazol-5-yl)-3-hydroxy-4-(3-hydroxy-phenyl)-5-(8-hydroxy-quinolin-2-yl)-1,5-dihydro-pyrrol-2-one] | 220
19 | O=C1C(O)=C(c2ccccc2)C(c2ccc(Cl)c(C(F)(F)F)c2)N1c1ccc2[nH]cnc2c1 (stereo not shown) [Compound 305, 1-(1H-Benzoimidazol-5-yl)-5-(4-chloro-3-trifluoromethyl-phenyl)-3-hydroxy-4-phenyl-1,5-dihydro-pyrrol-2-one] | 1750
20 | Cc1cccc(C2C(C(=O)c3ccsc3)=C(O)C(=O)N2c2ccc3[nH]cnc3c2)n1 (stereo not shown) [Compound 306, 1-(1H-Benzoimidazol-5-yl)-3-hydroxy-5-(6-methyl-pyridin-2-yl)-4-(thiophene-3-carbonyl)-1,5-dihydro-pyrrol-2-one] | 400
21 | Cc1cc(C2C(c3cccc(O)c3)=C(O)C(=O)N2c2ccc3[nH]cnc3c2)oc1C (stereo not shown) [Compound 307, 1-(1H-Benzoimidazol-5-yl)-5-(4,5-dimethyl-furan-2-yl)-3-hydroxy-4-(3-hydroxy-phenyl)-1,5-dihydro-pyrrol-2-one] | 2830
22 | O=C(O)c1ccc(C2C(C(=O)C3CC3)=C(O)C(=O)N2c2ccc3[nH]cnc3c2)o1 (stereo not shown) [Compound 308, 5-[1-(1H-Benzoimidazol-5-yl)-3-cyclopropanecarbonyl-4-hydroxy-5-oxo-2,5-dihydro-1H-pyrrol-2-yl]-furan-2-carboxylic acid] | 400
23 | O=C1C(O)=C(c2ccccc2)C(c2ccc(N3CCCC3)cc2)N1c1ccc2[nH]cnc2c1 (stereo not shown) [Compound 309, 1-(1H-Benzoimidazol-5-yl)-3-hydroxy-4-phenyl-5-(4-pyrrolidin-1-yl-phenyl)-1,5-dihydro-pyrrol-2-one] | 6880
24 | CC(C)(C)C(=O)C1=C(O)C(=O)N(c2ccc3[nH]cnc3c2)C1c1ccc2cccc(O)c2n1 (stereo not shown) [Compound 310, 1-(1H-Benzoimidazol-5-yl)-4-(2,2-dimethyl-propionyl)-3-hydroxy-5-(8-hydroxy-quinolin-2-yl)-1,5-dihydro-pyrrol-2-one] | 1030
25 | O=C(O)CC1=C(O)C(=O)N(c2ccc3[nH]cnc3c2)C1c1cccc(F)c1 (stereo not shown) [Compound 311, [1-(1H-Benzoimidazol-5-yl)-2-(3-fluoro-phenyl)-4-hydroxy-5-oxo-2,5-dihydro-1H-pyrrol-3-yl]-acetic acid] | 4540

Source: patent US8278345B2, “Inhibitors of glutaminyl cyclase” (Probiodrug AG, priority 2006, dated 2012)
